Assay in all cases: Kinase panel profiling at 1 µmol/L (MSA or IMAP), percentage inhibition
Common to all, as to assay type: biochemical

Test [1] concerns the target panel of 255 wild-type kinases (Homo sapiens, UniProt P54646). The following applies: read-out: %-inhibition AMPKα2/β1/γ1.
The target in test [2] is panel of 255 wild-type kinases (Homo sapiens, UniProt Q9HBH9). The following applies: read-out: %-inhibition, MNK2.
Test [3] has as its target panel of 255 wild-type kinases (Homo sapiens, UniProt Q8N4C8). The following applies: read-out: %-inhibition, MINK.
Test [4] concerns the target T1, panel of 255 wild-type kinases (Homo sapiens, UniProt O00141).
T1 sequence (O00141 1-431): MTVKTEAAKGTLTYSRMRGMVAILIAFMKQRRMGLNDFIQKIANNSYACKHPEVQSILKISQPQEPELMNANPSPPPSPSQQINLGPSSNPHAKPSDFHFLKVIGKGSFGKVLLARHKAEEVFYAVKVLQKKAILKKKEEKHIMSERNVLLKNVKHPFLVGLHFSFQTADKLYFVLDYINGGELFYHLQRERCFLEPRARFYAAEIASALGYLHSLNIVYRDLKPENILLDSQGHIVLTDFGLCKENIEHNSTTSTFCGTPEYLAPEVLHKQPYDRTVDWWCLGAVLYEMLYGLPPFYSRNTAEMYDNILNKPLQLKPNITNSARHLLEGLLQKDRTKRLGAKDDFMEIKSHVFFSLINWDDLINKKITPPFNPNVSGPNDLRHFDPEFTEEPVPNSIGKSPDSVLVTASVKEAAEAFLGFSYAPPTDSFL
The following applies: read-out: %-inhibition at 1 µmol/L, SGK.

The target in test [5] is T2, panel of 255 wild-type kinases (Homo sapiens, UniProt O14920).
T2 sequence (O14920 1-756): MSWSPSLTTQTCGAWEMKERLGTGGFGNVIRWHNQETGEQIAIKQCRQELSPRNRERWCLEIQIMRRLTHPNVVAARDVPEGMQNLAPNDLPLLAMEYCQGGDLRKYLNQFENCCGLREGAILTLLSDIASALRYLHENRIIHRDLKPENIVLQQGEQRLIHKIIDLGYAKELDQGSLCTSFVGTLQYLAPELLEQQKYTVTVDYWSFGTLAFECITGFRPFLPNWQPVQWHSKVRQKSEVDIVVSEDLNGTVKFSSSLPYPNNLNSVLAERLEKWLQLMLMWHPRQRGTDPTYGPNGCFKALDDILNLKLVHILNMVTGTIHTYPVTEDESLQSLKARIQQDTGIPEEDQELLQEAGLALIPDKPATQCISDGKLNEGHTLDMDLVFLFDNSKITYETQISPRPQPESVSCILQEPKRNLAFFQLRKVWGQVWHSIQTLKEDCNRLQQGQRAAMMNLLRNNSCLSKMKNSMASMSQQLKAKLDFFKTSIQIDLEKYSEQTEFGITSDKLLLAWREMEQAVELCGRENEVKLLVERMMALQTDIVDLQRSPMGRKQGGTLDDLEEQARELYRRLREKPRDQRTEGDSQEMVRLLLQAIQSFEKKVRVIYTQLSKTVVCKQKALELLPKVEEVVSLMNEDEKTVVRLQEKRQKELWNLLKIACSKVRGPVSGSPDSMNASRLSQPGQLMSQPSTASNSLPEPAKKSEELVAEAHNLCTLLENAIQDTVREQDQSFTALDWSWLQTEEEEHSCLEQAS
The following applies: read-out: %-inhibition at 1 µmol/L, IKKβ.

Test [6] has as its target T3, panel of 255 wild-type kinases (Homo sapiens, UniProt Q96PY6).
T3 sequence (Q96PY6 1-1258): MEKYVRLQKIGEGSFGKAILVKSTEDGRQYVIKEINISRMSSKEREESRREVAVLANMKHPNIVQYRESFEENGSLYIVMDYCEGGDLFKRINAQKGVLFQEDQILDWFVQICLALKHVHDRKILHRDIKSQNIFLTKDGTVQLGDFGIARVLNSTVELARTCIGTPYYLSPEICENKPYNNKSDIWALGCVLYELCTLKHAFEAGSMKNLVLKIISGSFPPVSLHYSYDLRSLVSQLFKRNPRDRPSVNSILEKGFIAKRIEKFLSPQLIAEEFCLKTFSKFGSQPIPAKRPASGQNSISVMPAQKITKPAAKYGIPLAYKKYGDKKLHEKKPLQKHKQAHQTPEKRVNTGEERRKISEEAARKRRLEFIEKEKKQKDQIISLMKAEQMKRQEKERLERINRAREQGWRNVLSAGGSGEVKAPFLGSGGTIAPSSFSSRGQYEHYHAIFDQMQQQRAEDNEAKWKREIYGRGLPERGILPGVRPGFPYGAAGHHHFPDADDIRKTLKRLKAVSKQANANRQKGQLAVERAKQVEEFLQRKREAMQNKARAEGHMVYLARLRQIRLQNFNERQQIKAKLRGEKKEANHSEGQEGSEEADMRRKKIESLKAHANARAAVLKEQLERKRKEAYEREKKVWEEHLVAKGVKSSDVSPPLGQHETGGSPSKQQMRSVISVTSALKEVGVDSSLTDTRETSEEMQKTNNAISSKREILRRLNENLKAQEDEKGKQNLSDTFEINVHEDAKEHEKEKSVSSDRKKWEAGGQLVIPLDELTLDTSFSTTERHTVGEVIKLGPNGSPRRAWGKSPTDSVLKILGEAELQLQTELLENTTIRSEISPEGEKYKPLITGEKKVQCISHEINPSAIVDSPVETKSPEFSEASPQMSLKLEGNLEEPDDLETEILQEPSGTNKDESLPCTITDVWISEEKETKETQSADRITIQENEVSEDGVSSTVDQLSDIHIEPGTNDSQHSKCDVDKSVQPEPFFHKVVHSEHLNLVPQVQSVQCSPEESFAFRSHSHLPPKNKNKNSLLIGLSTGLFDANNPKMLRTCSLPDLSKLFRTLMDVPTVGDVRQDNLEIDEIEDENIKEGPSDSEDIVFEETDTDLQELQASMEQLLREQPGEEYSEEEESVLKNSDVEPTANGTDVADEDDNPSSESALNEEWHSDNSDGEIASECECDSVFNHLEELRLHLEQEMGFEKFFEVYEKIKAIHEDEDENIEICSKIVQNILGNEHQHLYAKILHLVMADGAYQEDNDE
The following applies: read-out: %-inhibition, NEK1.

Setting [7] is: AMPKα2/β1/γ1 kinase assay, 1 µmol/L single concentration.
[8] abbreviates: MNK2, 1 µmol/L single concentration.
The mark [9] stands for this setting: MINK, 1 µmol/L single concentration.
[10] abbreviates: kinase SGK, 1 µmol/L single concentration.
Setting [11] is: kinase IKKβ, 1 µmol/L single concentration.
The mark [12] stands for this setting: NEK1, 1 µmol/L single concentration.

Where two headings read alike, the source gives them in different places.

As for `Cc1nc(NC(=O)N2CCC[C@H]2C(N)=O)sc1-c1ccnc(C(C)(C)C(F)(F)F)c1` [alpelisib], the inhibition at 1 µM was 2.22% in test [1] (setting [7]); 8% in test [2] (setting [8]); -2% in test [3] (setting [9]); -5.64% in test [4] (setting [10]); 0.111% in test [5] (setting [11]); -0.542% in test [6] (setting [12]).

Turning to `Cn1cc(-c2cc3c(N4CCN(c5ncc([C@@](C)(N)c6ccc(F)cc6)cn5)CC4)ncnn3c2)cn1` [avapritinib], the inhibition at 1 µM was found to be 3% in test [1] (setting [7]); 29% in test [2] (setting [8]); 4.44% in test [3] (setting [9]); 0.775% in test [4] (setting [10]); 0.049% in test [5] (setting [11]); 56% in test [6] (setting [12]).

With `Cn1cnc2c(F)c(Nc3ccc(Br)cc3F)c(C(=O)NOCCO)cc21` [binimetinib], the inhibition at 1 µM in test [1] (setting [7]) is -3.67%; in test [2] (setting [8]) it was -13%; in test [3] (setting [9]), -4.54%; in test [4] (setting [10]), 5%; in test [5] (setting [11]), -4%; in test [6] (setting [12]), -1.21%.

Regarding `CNC(=O)c1ccc(-c2cnc3ncc(Cc4ccc5ncccc5c4)n3n2)cc1F` [capmatinib], the inhibition at 1 µM is -1.21% in test [1]; -4% in test [2]; -4% in test [3]; -0.731% in test [4]; -0.588% in test [5]; -8% in test [6].

`COc1cc2ncnc(Nc3ccc(F)c(Cl)c3)c2cc1NC(=O)/C=C/CN1CCCCC1` [dacomitinib]: the inhibition at 1 µM in test [1] (setting [7]) is -3%; in test [2] (setting [8]), 76%; in test [3] (setting [9]), 7.37%; in test [4] (setting [10]), -6%; in test [5] (setting [11]), 6%; in test [6] (setting [12]) it was 0.762%.

Take `C[C@H](Nc1ncnc2nc[nH]c12)c1cc2cccc(Cl)c2c(=O)n1-c1ccccc1` [duvelisib]: the inhibition at 1 µM in test [1] (setting [7]) is -0.155%; in test [2] (setting [8]), 7%; in test [3] (setting [9]), 0.317%; in test [4] (setting [10]), -3.47%; in test [5] (setting [11]), 0.466%; in test [6] (setting [12]) it was -3.74%.

As for `COC(=O)N[C@@H](C)CNc1nccc(-c2cn(C(C)C)nc2-c2cc(Cl)cc(NS(C)(=O)=O)c2F)n1` [encorafenib], the inhibition at 1 µM was 0.723% in test [1] (setting [7]); -3.42% in test [2] (setting [8]); 1.29% in test [3] (setting [9]); 7% in test [4] (setting [10]); 0.644% in test [5] (setting [11]); 2.84% in test [6] (setting [12]).

Consider `CN1CCN(c2ccc(C(=O)Nc3n[nH]c4ccc(Cc5cc(F)cc(F)c5)cc34)c(NC3CCOCC3)c2)CC1` [entrectinib], for which the inhibition at 1 µM in test [1] (setting [7]) was 79%; in test [2] (setting [8]), 0.904%; in test [3] (setting [9]), 1.64%; in test [4] (setting [10]) it was -5.65%; in test [5] (setting [11]), -0.451%; in test [6] (setting [12]), -3.78%.

Turning to `CCc1nc(C(N)=O)c(Nc2ccc(N3CCC(N4CCN(C)CC4)CC3)c(OC)c2)nc1NC1CCOCC1` [gilteritinib], the inhibition at 1 µM in test [1] (setting [7]) was 21%; in test [2] (setting [8]), 89%; in test [3] (setting [9]), 80%; in test [4] (setting [10]), 8.52%; in test [5] (setting [11]), 5.66%; in test [6] (setting [12]) it was 5.59%.

As for `CCN1CCN(c2ccc(Nc3cc(N(C)C(=O)Nc4c(Cl)c(OC)cc(OC)c4Cl)ncn3)cc2)CC1` [infigratinib], the inhibition at 1 µM was -2% in test [1] (setting [7]); -1.83% in test [2] (setting [8]); -2.82% in test [3] (setting [9]); -1.45% in test [4] (setting [10]); 0.304% in test [5] (setting [11]); -5% in test [6] (setting [12]).

Consider `O=C(Nc1cnn2ccc(N3CCC[C@@H]3c3cc(F)ccc3F)nc12)N1CC[C@H](O)C1` [larotrectinib], for which the inhibition at 1 µM is -6% in test [1] (setting [7]); -8.51% in test [2] (setting [8]); -2.24% in test [3] (setting [9]); -1.16% in test [4] (setting [10]); -1.76% in test [5] (setting [11]); -2.72% in test [6] (setting [12]).

For `C[C@H]1Oc2cc(cnc2N)-c2c(nn(C)c2C#N)CN(C)C(=O)c2ccc(F)cc21` [lorlatinib], the inhibition at 1 µM in test [1] (setting [7]) is 2.22%; in test [2] (setting [8]), 13%; in test [3] (setting [9]) it was -0.198%; in test [4] (setting [10]), -0.181%; in test [5] (setting [11]), -0.377%; in test [6] (setting [12]), 0.741%.

As for `CCN1C(=O)N(c2c(F)c(OC)cc(OC)c2F)Cc2cnc3[nH]c(CN4CCOCC4)cc3c21` [pemigatinib], the inhibition at 1 µM is -5% in test [1] (setting [7]); -7.4% in test [2] (setting [8]); -4.31% in test [3] (setting [9]); 5% in test [4] (setting [10]); -1.22% in test [5] (setting [11]); 10% in test [6] (setting [12]).

With `FC(F)(F)c1ccc(CNc2ccc(Cc3c[nH]c4ncc(Cl)cc34)cn2)cn1` [pexidartinib], the inhibition at 1 µM was -7% in test [1] (setting [7]); 48% in test [2] (setting [8]); 9% in test [3] (setting [9]); 11% in test [4] (setting [10]); 5% in test [5] (setting [11]); -1.38% in test [6] (setting [12]).

Source of the values: article PMC9516332 (Frontiers in Oncology, 2022).
